Values of other authors, collected in publication PMC10329973 (Clinical pharmacology in drug development, 2023).

How the values were obtained:
depressed individuals = conditions: study in depressed individuals; cited from earlier work
blood pressure = conditions: cited from earlier work

C[C@@H]([C@@H](O)c1ccc(O)cc1)N1CCC(O)(c2ccccc2)CC1 [CP-101,606, traxoprodil]
dissociative effects (depressed individuals): ketamine-like dissociative effects were noted

Cc1ccc(COC(=O)N2CC[C@H](CNc3ncccn3)[C@H](F)C2)cc1 [MK-0657]
off-target cardiovascular effects (blood pressure): increased blood pressure
